Measurements: the NIST ThermoML archive (doi:10.1016/j.jct.2017.08.004)

Assay: molar heat capacity at constant pressure
Details: 101.33 kPa

OC[C@@H](O)[C@@H](O)CO [meso-1,2,3,4-butanetetrol]
molar heat capacity at constant pressure [J/K/mol]
Details	Small sample (50 mg) DSC	relaxation calorimetry
264.15 K, Crystal	146.16	–
265.15 K, Crystal	146.7	–
266.15 K, Crystal	147.21	–
267.15 K, Crystal	147.61	–
268.15 K, Crystal	148.1	–
269.15 K, Crystal	148.57	–
270 K, Crystal	–	150.4
270.15 K, Crystal	149.15	–
271.15 K, Crystal	149.59	–
272.15 K, Crystal	150.19	–
272.18 K, Crystal	–	151.4
273.15 K, Crystal	150.91	152
274.15 K, Crystal	151.33	–
275.15 K, Crystal	151.84	–
276.15 K, Crystal	152.44	–
277.15 K, Crystal	152.94	–
278.15 K, Crystal	153.58	–
279.15 K, Crystal	154.21	–
280 K, Crystal	–	155.49
280.15 K, Crystal	154.62	–
281.15 K, Crystal	155.17	–
282.15 K, Crystal	155.77	–
282.18 K, Crystal	–	157.05
283.15 K, Crystal	156.24	–
284.15 K, Crystal	156.55	–
285.15 K, Crystal	157.21	–
286.15 K, Crystal	157.62	–
287.15 K, Crystal	158.1	–
288.15 K, Crystal	158.65	–
289.15 K, Crystal	159.25	–
290 K, Crystal	–	160.61
290.15 K, Crystal	159.93	–
291.15 K, Crystal	160.48	–
292.15 K, Crystal	161.05	–
292.3 K, Crystal	–	161.64
293.15 K, Crystal	161.72	–
294.15 K, Crystal	162.21	–
295.15 K, Crystal	162.81	–
296.15 K, Crystal	163.64	–
297.15 K, Crystal	164.09	–
298.15 K, Crystal	164.59	164.8
299.15 K, Crystal	165.2	–
300 K, Crystal	–	165.76
300.15 K, Crystal	165.82	–
301.15 K, Crystal	166.37	–
302.15 K, Crystal	166.97	–
302.36 K, Crystal	–	167.01
303.15 K, Crystal	167.71	–
304.15 K, Crystal	168.28	–
305 K, Crystal	169.01	–
305.15 K, Crystal	169.01	–
306.15 K, Crystal	169.71	–
307.15 K, Crystal	170.39	–
308.15 K, Crystal	171.17	–
309.15 K, Crystal	171.87	–
310 K, Crystal	172.33	–
310.15 K, Crystal	172.47	–
311.15 K, Crystal	173.14	–
312.15 K, Crystal	173.77	–
313.15 K, Crystal	174.6	–
314.15 K, Crystal	175.09	–
315 K, Crystal	175.5	–
315.15 K, Crystal	175.58	–
316.15 K, Crystal	176.2	–
317.15 K, Crystal	176.88	–
318.15 K, Crystal	177.32	–
319.15 K, Crystal	177.89	–
320 K, Crystal	178.54	–
320.15 K, Crystal	178.54	–
321.15 K, Crystal	179.14	–
322.15 K, Crystal	179.7	–
323.15 K, Crystal	180.24	–
324.15 K, Crystal	180.85	–
325 K, Crystal	181.48	–
325.15 K, Crystal	181.48	–
326.15 K, Crystal	181.97	–
327.15 K, Crystal	182.72	–
328.15 K, Crystal	183.34	–
329.15 K, Crystal	183.85	–
330 K, Crystal	184.34	–
330.15 K, Crystal	184.59	–
331.15 K, Crystal	185.18	–
332.15 K, Crystal	185.74	–
333.15 K, Crystal	186.31	–
334.15 K, Crystal	186.85	–
335 K, Crystal	187.15	–
335.15 K, Crystal	187.33	–
336.15 K, Crystal	187.85	–
337.15 K, Crystal	188.31	–
338.15 K, Crystal	188.9	–
339.15 K, Crystal	189.49	–
340 K, Crystal	189.91	–
340.15 K, Crystal	189.94	–
341.15 K, Crystal	190.43	–
342.15 K, Crystal	191.01	–
343.15 K, Crystal	191.56	–
344.15 K, Crystal	192.16	–
345 K, Crystal	192.66	–
345.15 K, Crystal	192.67	–
346.15 K, Crystal	193.32	–
347.15 K, Crystal	193.86	–
348.15 K, Crystal	194.17	–
349.15 K, Crystal	194.83	–
350 K, Crystal	195.43	–
350.15 K, Crystal	195.3	–
351.15 K, Crystal	195.72	–
352.15 K, Crystal	196.34	–
353.15 K, Crystal	197.73	–
354.15 K, Crystal	198.08	–
355 K, Crystal	198.22	–
355.15 K, Crystal	198.55	–
356.15 K, Crystal	199.02	–
357.15 K, Crystal	199.53	–
358.15 K, Crystal	200.16	–
359.15 K, Crystal	200.7	–
360 K, Crystal	201.07	–
360.15 K, Crystal	201.23	–
361.15 K, Crystal	201.82	–
362.15 K, Crystal	202.33	–
363.15 K, Crystal	202.72	–
364.15 K, Crystal	203.4	–
365 K, Crystal	203.99	–
365.15 K, Crystal	203.96	–
366.15 K, Crystal	204.56	–
367.15 K, Crystal	205.27	–
368.15 K, Crystal	205.84	–
369.15 K, Crystal	206.45	–
370 K, Crystal	207.02	–
370.15 K, Crystal	207.1	–
371.15 K, Crystal	207.59	–
372.15 K, Crystal	208.24	–
373.15 K, Crystal	208.9	–
374.15 K, Crystal	209.47	–
375 K, Crystal	210.16	–
375.15 K, Crystal	210.03	–
412.05 K, Liquid	355.49	–
412.15 K, Liquid	355.53	–
412.25 K, Liquid	355.65	–
412.35 K, Liquid	355.53	–
412.45 K, Liquid	355.34	–
412.55 K, Liquid	355.36	–
412.65 K, Liquid	355.43	–
412.75 K, Liquid	355.39	–
412.85 K, Liquid	355.48	–
412.95 K, Liquid	355.36	–
413.05 K, Liquid	355.34	–
413.15 K, Liquid	355.22	–
414.15 K, Liquid	354.92	–
415 K, Liquid	354.91	–
415.15 K, Liquid	354.76	–
416.15 K, Liquid	354.79	–
417.15 K, Liquid	354.7	–
418.15 K, Liquid	354.67	–
419.15 K, Liquid	354.7	–
420 K, Liquid	354.96	–
420.15 K, Liquid	354.81	–
421.15 K, Liquid	354.98	–
422.15 K, Liquid	354.99	–
423.15 K, Liquid	354.99	–
424.15 K, Liquid	354.94	–
425 K, Liquid	355.01	–
425.15 K, Liquid	354.94	–
426.15 K, Liquid	354.95	–
427.15 K, Liquid	355.23	–
428.15 K, Liquid	355.21	–
429.15 K, Liquid	355.15	–
430 K, Liquid	355.06	–
430.15 K, Liquid	355.18	–
431.15 K, Liquid	355.17	–
432.15 K, Liquid	355.17	–
433.15 K, Liquid	355	–
434.15 K, Liquid	354.85	–
435 K, Liquid	355.11	–
435.15 K, Liquid	355.19	–
